Tested on: NCI-H719 tumor spheroids, viability
Experiment: Anticancer human tumor NCI-H719 cell line growth inhibition;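 further: spheroids exposed to compounds for seven days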;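 on viability, T/C: percent viability relative to DMSO vehicle control as 100%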
Conditions: spheroids with HUVEC and MSC; for IC50: curve of first compound; for viability, T/C: stronger effect = lower value
Summary of the method: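 Complex spheroids of malignant cells with endothelial cells and mesenchymal stem cells; agents alone or combined, from near clinical Cmax (or 10 microM if unknown) down in half-log steps, 0.25% DMSO final.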

[1] = second compound 30 pM, first compound 0.0316 µM
[2] = second compound 30 pM, first compound 0.1 µM
[3] = second compound 30 pM, first compound 0.316 µM
[4] = second compound 30 pM, first compound 1 µM
[5] = second compound 30 pM, first compound 3.16 µM
[6] = second compound 30 pM, first compound 10 µM
[7] = second compound 94.9 pM, first compound 0.0316 µM
[8] = second compound 94.9 pM, first compound 0.1 µM
[9] = second compound 94.9 pM, first compound 0.316 µM
[10] = second compound 94.9 pM, first compound 1 µM
[11] = second compound 94.9 pM, first compound 3.16 µM
[12] = second compound 94.9 pM, first compound 10 µM
[13] = second compound 0.0003 µM, first compound 0.0316 µM
[14] = second compound 0.0003 µM, first compound 0.1 µM
[15] = second compound 0.0003 µM, first compound 0.316 µM
[16] = second compound 0.0003 µM, first compound 1 µM
[17] = second compound 0.0003 µM, first compound 3.16 µM
[18] = second compound 0.0003 µM, first compound 10 µM
[19] = second compound 0.000949 µM, first compound 0.0316 µM
[20] = second compound 0.000949 µM, first compound 0.1 µM
[21] = second compound 0.000949 µM, first compound 0.316 µM
[22] = second compound 0.000949 µM, first compound 1 µM
[23] = second compound 0.000949 µM, first compound 3.16 µM
[24] = second compound 0.000949 µM, first compound 10 µM
[25] = second compound 0.003 µM, first compound 0.0316 µM
[26] = second compound 0.003 µM, first compound 0.1 µM
[27] = second compound 0.003 µM, first compound 0.316 µM
[28] = second compound 0.003 µM, first compound 1 µM
[29] = second compound 0.003 µM, first compound 3.16 µM
[30] = second compound 0.003 µM, first compound 10 µM

For CC(C)n1c(=O)n(C)c2cnc3cc(F)c(-c4ccc(OCCCN5CCCCC5)nc4)cc3c21 + COc1cc2c(cc1O)CCNC21CSC2c3c(OC(C)=O)c(C)c4c(c3C(COC1=O)N1C(O)C3Cc5cc(C)c(OC)c(O)c5C(C21)N3C)OCO4, the IC50 (second compound 30 pM) was > 10000 nM, the IC50 (second compound 94.9 pM) was < 31.6 nM and the IC50 (second compound 0.0003 µM) was < 31.6 nM. For the same molecule, the IC50 (second compound 0.000949 µM) was < 31.6 nM, the IC50 (second compound 0.003 µM) was < 31.6 nM and the viability, T/C [1] was 90.9%. The viability, T/C [2] was 86.2%, the viability, T/C [3] was 85.7% and the viability, T/C [4] was 71.2%. The viability, T/C [5] was 74.3%, the viability, T/C [6] was 98.8% and the viability, T/C [7] was 40.8%. The viability, T/C [8] was 60.5%, the viability, T/C [9] was 45.5% and the viability, T/C [10] was 47.9%. For the same molecule, the viability, T/C [11] was 36.5%, the viability, T/C [12] was 43.7% and the viability, T/C [13] was 30.1%. It also gave a viability, T/C [14] of 5.76%, a viability, T/C [15] of 27.8% and a viability, T/C [16] of 8.34%. For the same molecule, the viability, T/C [17] was 8.82%, the viability, T/C [18] was 5.34% and the viability, T/C [19] was 6.42%. It also gave a viability, T/C [20] of 7.84%, a viability, T/C [21] of 6.99% and a viability, T/C [22] of 6.68%. The viability, T/C [23] was 5.62%, the viability, T/C [24] was 4.34% and the viability, T/C [25] was 0.61%. The viability, T/C [26] was 1.06%, the viability, T/C [27] was 0.76% and the viability, T/C [28] was 0.52%. It also gave a viability, T/C [29] of 0.99% and a viability, T/C [30] of 0.68%.
In the case of COc1ccc([C@@H](O)c2cc(-c3ncnc4cc(N5CCOCC5)ccc34)c(F)cc2Cl)nn1 + COc1cc2c(cc1O)CCNC21CSC2c3c(OC(C)=O)c(C)c4c(c3C(COC1=O)N1C(O)C3Cc5cc(C)c(OC)c(O)c5C(C21)N3C)OCO4, the IC50 (second compound 30 pM) is reported as 1110 nM, the IC50 (second compound 94.9 pM) is reported as < 31.6 nM and the IC50 (second compound 0.0003 µM) is reported as < 31.6 nM. For the same molecule, the IC50 (second compound 0.000949 µM) was < 31.6 nM, the IC50 (second compound 0.003 µM) was < 31.6 nM and the viability, T/C [1] was 81.5%. For the same molecule, the viability, T/C [2] was 100%, the viability, T/C [3] was 75.2% and the viability, T/C [4] was 52.4%. It also gave a viability, T/C [5] of 22%, a viability, T/C [6] of 3.59% and a viability, T/C [7] of 49.7%. It also gave a viability, T/C [8] of 25.2%, a viability, T/C [9] of 44% and a viability, T/C [10] of 27.7%. For the same molecule, the viability, T/C [11] was 8.27%, the viability, T/C [12] was 3% and the viability, T/C [13] was 13.6%. For the same molecule, the viability, T/C [14] was 8.22%, the viability, T/C [15] was 10.1% and the viability, T/C [16] was 6.05%. It also gave a viability, T/C [17] of 3.35%, a viability, T/C [18] of 1.11% and a viability, T/C [19] of 8.53%. For the same molecule, the viability, T/C [20] was 8.3%, the viability, T/C [21] was 7.46% and the viability, T/C [22] was 4.41%. For the same molecule, the viability, T/C [23] was 1.46%, the viability, T/C [24] was 0.7% and the viability, T/C [25] was 0.57%. It also gave a viability, T/C [26] of 0.58%, a viability, T/C [27] of 0.46% and a viability, T/C [28] of 0.68%. It also gave a viability, T/C [29] of 0.54% and a viability, T/C [30] of 0.45%.
In the case of O=C(c1cc(Cc2n[nH]c(=O)c3ccccc23)ccc1F)N1CCN(C(=O)C2CC2)CC1 + Cn1nnc2c(C(N)=O)ncn2c1=O, the IC50 (second compound 1 µM) is reported as 1720 nM, the IC50 (second compound 3.16 µM) is reported as 1360 nM and the IC50 (second compound 10 µM) is reported as 1950 nM. For the same molecule, the IC50 (second compound 31.6 µM) was < 94.9 nM, the IC50 (second compound 100 µM) was < 94.9 nM and the viability, T/C (second compound 1 µM, first compound 0.0949 µM) was 73.7%. For the same molecule, the viability, T/C (second compound 1 µM, first compound 0.3 µM) was 56%, the viability, T/C (second compound 1 µM, first compound 0.949 µM) was 56.1% and the viability, T/C (second compound 1 µM, first compound 3 µM) was 42.1%. It also gave a viability, T/C (second compound 1 µM, first compound 9.49 µM) of 7.25%, a viability, T/C (second compound 1 µM, first compound 30 µM) of 6.89% and a viability, T/C (second compound 3.16 µM, first compound 0.0949 µM) of 64.2%. The viability, T/C (second compound 3.16 µM, first compound 0.3 µM) was 60.5%, the viability, T/C (second compound 3.16 µM, first compound 0.949 µM) was 67% and the viability, T/C (second compound 3.16 µM, first compound 3 µM) was 19.5%. The viability, T/C (second compound 3.16 µM, first compound 9.49 µM) was 20.2%, the viability, T/C (second compound 3.16 µM, first compound 30 µM) was 7.9% and the viability, T/C (second compound 10 µM, first compound 0.0949 µM) was 55.8%. The viability, T/C (second compound 10 µM, first compound 0.3 µM) was 66.7%, the viability, T/C (second compound 10 µM, first compound 0.949 µM) was 56% and the viability, T/C (second compound 10 µM, first compound 3 µM) was 43.9%. It also gave a viability, T/C (second compound 10 µM, first compound 9.49 µM) of 29.8%, a viability, T/C (second compound 10 µM, first compound 30 µM) of 7.79% and a viability, T/C (second compound 31.6 µM, first compound 0.0949 µM) of 52.4%. For the same molecule, the viability, T/C (second compound 31.6 µM, first compound 0.3 µM) was 53.3%, the viability, T/C (second compound 31.6 µM, first compound 0.949 µM) was 34.1% and the viability, T/C (second compound 31.6 µM, first compound 3 µM) was 40.7%. For the same molecule, the viability, T/C (second compound 31.6 µM, first compound 9.49 µM) was 42.8%, the viability, T/C (second compound 31.6 µM, first compound 30 µM) was 6.8% and the viability, T/C (second compound 100 µM, first compound 0.0949 µM) was 43.5%. It also gave a viability, T/C (second compound 100 µM, first compound 0.3 µM) of 21.9%, a viability, T/C (second compound 100 µM, first compound 0.949 µM) of 29.4% and a viability, T/C (second compound 100 µM, first compound 3 µM) of 51.8%. It also gave a viability, T/C (second compound 100 µM, first compound 9.49 µM) of 7.29% and a viability, T/C (second compound 100 µM, first compound 30 µM) of 7.19%.

— PubChem BioAssay AID1845212 (Molecular Pharmacology Branch, DTP, NCI, 2023)
